Assay results taken from the NIST ThermoML archive (doi:10.1016/j.jct.2019.01.021).
Numbers after ± are expanded uncertainties.

Columns and labels:
[1] = Molar enthalpy of transition or fusion
[2] = for molar entropy: 101.33 kPa, Small (less than 1 g) adiabatic calorimetry

N.NS(=O)(=O)O [ammonium sulfamate]
Conditions | Molar enthalpy of transition or fusion, Crystal 1, DSC [kcal/mol] | Molar enthalpy of transition or fusion, Crystal 2, Adiabatic calorimetry [kcal/mol] | Normal melting temperature, Crystal 1, DTA [°C] | Triple point temperature, Crystal 2, Adiabatic calorimetry [K]
[1] | 3.87 ± 0.191 | 0.00287 ± 0.00191 | – | –
[2] | – | – | 133.0 ± 0.4 | 254.5 ± 0.2

[2]
Conditions | molar entropy [J/K/mol]
5 K, Crystal 2 | 0.0002827
10 K, Crystal 2 | 0.07483 ± 0.025
15 K, Crystal 2 | 0.4656 ± 0.091
20 K, Crystal 2 | 1.33 ± 0.25
25 K, Crystal 2 | 2.661 ± 0.17
30 K, Crystal 2 | 4.49 ± 0.25
35 K, Crystal 2 | 6.735 ± 0.42
40 K, Crystal 2 | 9.229 ± 0.5
45 K, Crystal 2 | 12.14 ± 0.42
50 K, Crystal 2 | 15.13 ± 0.5
55 K, Crystal 2 | 18.29 ± 0.58
60 K, Crystal 2 | 21.53 ± 0.67
65 K, Crystal 2 | 24.86 ± 0.75
70 K, Crystal 2 | 28.35 ± 0.91
75 K, Crystal 2 | 31.84 ± 1
80 K, Crystal 2 | 35.42 ± 1.2
90 K, Crystal 2 | 42.65 ± 1.2
100 K, Crystal 2 | 49.97 ± 0.83
110 K, Crystal 2 | 57.29 ± 1
120 K, Crystal 2 | 64.6 ± 1.1
130 K, Crystal 2 | 71.75 ± 1.2
140 K, Crystal 2 | 78.82 ± 1.2
150 K, Crystal 2 | 85.64 ± 1.7
160 K, Crystal 2 | 92.29 ± 1.7
170 K, Crystal 2 | 98.94 ± 1.7
180 K, Crystal 2 | 105.59 ± 1.7
190 K, Crystal 2 | 112.25 ± 1.7
200 K, Crystal 2 | 118.07 ± 1.7
210 K, Crystal 2 | 123.89 ± 1.7
220 K, Crystal 2 | 130.54 ± 1.7
230 K, Crystal 2 | 136.36 ± 1.7
240 K, Crystal 2 | 141.35 ± 1.7
260 K, Crystal 1 | 152.99 ± 1.7
270 K, Crystal 1 | 157.97 ± 1.7
280 K, Crystal 1 | 163.79 ± 1.7
290 K, Crystal 1 | 168.78 ± 1.7
298.15 K, Crystal 1 | 172.94 ± 2.5
300 K, Crystal 1 | 173.77 ± 2.5
310 K, Crystal 1 | 178.76 ± 2.5
320 K, Crystal 1 | 183.75 ± 2.5
330 K, Crystal 1 | 188.74 ± 2.5
